Structures are written as SMILES. In brackets after ≈: the same amount, converted by molar mass.

The term IC50 denotes the concentration at which inhibition is half-maximal. Read a low IC50 as greater potency.

Experiment [1] is described as follows: Cytotoxicity against human KB16 cells by methylene blue dye assay.
Another experiment has as its system COLO 205. The experiment can be described thus: Cytotoxicity against human COLO205 cells by methylene blue dye assay.

Take `C=C1[C@H](C)CCC[C@]1(C)CC[C@@]1(C)C=Cc2c(OC(C)=O)c(OC)cc(OC(C)=O)c2O1` [HIPPOCHROMIN B DIACETATE]: the IC50 (in experiment [1]; with COLO 205) was above 10 µg/mL each time.
Regarding `C=C1[C@H](C)CCC[C@]1(C)CC[C@@]1(C)C=Cc2c(O)c(OC)cc(OC)c2O1` [METACHROMIN B], the IC50 in experiment [1] worked out at 0.68 µg/mL (≈ 1.83 µM); in the experiment with COLO 205 it was 0.26 µg/mL (≈ 0.698 µM).
The corresponding values for `C=C1[C@H](C)CCC[C@]1(C)CC[C@@]1(C)C=Cc2c(OC(C)=O)c(OC(C)=O)cc(OC)c2O1` [HIPPOCHROMIN A DIACETATE] are 3.06 µg/mL and 0.22 µg/mL.
The corresponding values for `C=C1[C@H](C)CCC[C@]1(C)CC[C@@]1(C)C=CC2=C(O1)C(=O)C=C(OC)C2=O` [METACHROMIN E] are above 10 µg/mL and above 10 µg/mL.
The corresponding values for `C=C1[C@H](C)CCC[C@]1(C)CC/C(C)=C/CC1=C(OC)C(=O)C=C(OC)C1=O` [METACHROMIN A MONOMETHYLATE] are above 10 µg/mL and above 10 µg/mL.
`C=C1[C@H](C)CCC[C@]1(C)CC[C@@]1(C)C=Cc2c(OC(C)=O)c(OC)cc(OC)c2O1` [METACHROMIN B MONO METHYLATE]: the half-inhibitory concentration (IC50) worked out at 1.32 µg/mL (≈ 3.18 µM) in experiment [1] and 0.53 µg/mL (≈ 1.28 µM) in the experiment on COLO 205.
With `C=C1[C@H](C)CCC[C@]1(C)CC/C(C)=C/CC1=C(O)C(=O)C=C(OC)C1=O` [METACHROMIN A], the IC50 in experiment [1] was 1.8 µg/mL (≈ 5.02 µM); with COLO 205, 0.1 µg/mL (≈ 0.279 µM).
